# Molecular target: T1, horseradish peroxidase (HRP) (Armoracia rusticana, UniProt P00433)
# T1 construct: gene PRXC1A; free or encapsulated in HOF-PTBA
# T1 sequence (P00433 31-338): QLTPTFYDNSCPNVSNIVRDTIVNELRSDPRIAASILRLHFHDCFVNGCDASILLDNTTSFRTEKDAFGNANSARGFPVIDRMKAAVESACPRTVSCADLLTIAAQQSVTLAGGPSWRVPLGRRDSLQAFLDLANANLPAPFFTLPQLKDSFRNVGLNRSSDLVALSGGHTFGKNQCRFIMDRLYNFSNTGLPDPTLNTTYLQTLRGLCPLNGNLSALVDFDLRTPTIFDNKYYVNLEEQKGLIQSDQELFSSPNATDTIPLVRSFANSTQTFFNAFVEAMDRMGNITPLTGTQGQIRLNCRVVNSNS
# Assay: GOx-HRP cascade, UV-vis of oxidised TMB
# Type: biochemical
# Conditions: co-substrate H2O2 made by GOx from glucose; free GOx&HRP mixture and GOx&HRP@HOF-PTBA both tested
compound,measurement,value
Cc1cc(-c2cc(C)c(N)c(C)c2)cc(C)c1N [TMB],"GOx-HRP cascade, UV-vis of oxidised TMB",H2O2 subsequently acting as a substrate for HRP to catalyze the oxidation of TMB

# Source: article PMC11440381, “Facile and scale-up syntheses of high-performance enzyme@meso-HOF biocatalysts” (Chemical Science, 2024)
